For data set [1], the target named is T1, steroid sulfatase (Homo sapiens, UniProt P08842).
T1 sequence (P08842 22-583): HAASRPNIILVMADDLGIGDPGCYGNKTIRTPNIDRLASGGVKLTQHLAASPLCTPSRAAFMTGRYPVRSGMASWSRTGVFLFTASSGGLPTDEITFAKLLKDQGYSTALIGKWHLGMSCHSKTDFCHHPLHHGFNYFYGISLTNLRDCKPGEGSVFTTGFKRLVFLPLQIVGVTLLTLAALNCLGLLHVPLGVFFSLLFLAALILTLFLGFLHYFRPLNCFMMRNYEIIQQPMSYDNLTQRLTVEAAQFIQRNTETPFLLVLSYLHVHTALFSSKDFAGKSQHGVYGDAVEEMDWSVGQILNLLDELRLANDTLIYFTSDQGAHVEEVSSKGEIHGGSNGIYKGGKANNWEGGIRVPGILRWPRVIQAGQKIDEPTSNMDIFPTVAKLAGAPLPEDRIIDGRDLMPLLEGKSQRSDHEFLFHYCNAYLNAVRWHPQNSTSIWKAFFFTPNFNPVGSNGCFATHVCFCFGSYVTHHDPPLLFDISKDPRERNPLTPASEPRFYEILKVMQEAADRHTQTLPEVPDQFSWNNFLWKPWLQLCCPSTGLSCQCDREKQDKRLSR
The data set can be described thus: Steroid sulfatase inhibition in cell extracts (HaCaT keratinocytes or 1BR3GN fibroblasts, [3H]-DHEAS cleavage). Type of data set: biochemical. The arrangement: the supernatant which contains the solubilized enzyme is removed and stored at 4°; endogenous in cells; host or cells: HaCaT keratinocytes or 1BR3GN fibroblasts (microsomal extract). To be noted: solubilized enzyme from HaCaT or 1BR3GN cells, 50 μM DHEAS, 30 minutes at 37°; depending on the enzyme concentration used.
Description: Steroid Sulfatase Inhibition in Cell Extracts
Human keratinocytes (HaCaT) or human skin-derived fibroblasts (1BR3GN) are grown to confluency using standard cell culture techniques. Cells are harvested by trypsinization, washed once with phosphate-buffered saline (PBS) and suspended in 20 mM Tris-HCl, pH 8.0. The suspension is sonicated and then centrifuged at 12000 g for 30 minutes. The supernatant is subjected to ultracentrifugation at 100000 g for 60 minutes. The resulting microsomal pellet is resuspended in buffer containing 0.1% Triton X-100 v/v and left standing for 30 minutes. After additional centrifugation at 100000 g for 30 minutes the supernatant which contains the solubilized enzyme is removed and stored at 4°.
For assay of the enzymatic activity 10 μl of enzyme solution are added to 100 μl of 50 μM dehydroepiandrosterone sulfate (DHEAS) containing approximately 60000 dpm [^3H]-DHEAS (21 Ci/mmol) in 0.1 M Tris-HCl, pH 7.5; 0.1% v/v Triton X-100. Test compound is included at various concentrations added from stock solutions in DMSO. After incubation for 30 minutes at 37°, 250 μl of 1N NaOH are added. The mixture is extracted with 1 ml of toluene. 800 μl of the organic layer are subjected to liquid scintillation counting to determine the fraction of substrate that has been cleaved to dehydroepiandrosterone (DHEA).

For data set [2], the target named is T2, steroid sulfatase in HaCaT keratinocytes (Homo sapiens, UniProt P08842).
T2 construct: HaCaT keratinocytes are cultivated in Dulbecco's modification of Eagle's medium (DMEM); endogenous in cells; host or cells: HaCaT keratinocytes
T2 sequence (P08842 22-583): T1 sequence (P08842 22-583)
The data set can be described thus: Steroid sulfatase inhibition in HaCaT cells incubated with DHEAS. Type of data set: cell-based. The note with it: intact HaCaT keratinocytes, 0.3 μM DHEAS, 96 hours.
Description: Steroid Sulfatase Inhibition in HaCaT Cells Incubated with DHEAS
HaCaT keratinocytes are cultivated in Dulbecco's modification of Eagle's medium (DMEM) supplemented with 10% v/v fetal calf serum (FCS). They are grown to confluency and then harvested by trypsinization. Approximately 2×10^6 cells are dispensed into 9.6 cm^2 dishes and incubated in medium containing FCS until confluency is reached. Then the medium is changed to serum-free DMEM (1.5 ml per well); 0.3 μM DHEAS is included as substrate with 1.5 μCi/well [^3H]-DHEAS (21 Ci/mmol) as tracer. Incubation is continued for 96 hours. […] In parallel, DHEAS is also incubated with medium without cells as a control for non-enzymatic hydrolysis. After incubation, the supernatant is removed and 1 ml is extracted with 4 ml of toluene. 3 ml of the organic layer are collected and the solvent evaporated in vacuo. The residue is taken up in acetonitrile. 10 μg DHEA is included as carrier. The extract is analysed by high performance liquid chromatography (HPLC) using a RP C-8 column and isocratic elution with 10 mM ammonium sulfate pH 6/acetonitrile (60/40), at a flow rate of 1 ml/min. The amount of DHEA cleaved during incubation is calculated from the area of the corresponding radioactive peak determined by continuous monitoring with a radiodetector equipped with a flow-cell.

The target in data set [3] is T1, steroid sulfatase. The data set can be described thus: Steroid sulfatase inhibition in vitro (purified enzyme, 4-methylumbelliferyl sulfate cleavage, fluorescence). To be noted: purified human placental steroid sulfatase, 0.5 mM 4-methylumbelliferyl sulfate, 37°, 1 hour; reference determined in parallel.
Description: Steroid Sulfatase Inhibition in vitro
a) Purification of Human Steroid Sulfatase
Human placenta is obtained fresh after delivery and stripped of membranes and connective tissues. For storage the material is frozen at −70°. After thawing, all further steps are carried out at 4°, while pH values are adjusted at 20°. 400 g of tissue are homogenized in 1.2 l of buffer A (50 mM Tris-HCl, pH 7.4; 0.25M sucrose). The homogenate is centrifuged at 10,000 g for 45 minutes. The supernatant is set aside and the pellet re-homogenized in 500 ml of buffer A. After centrifugation the two supernatants are combined and subjected to ultracentrifugation (100,000 g, 1 hour). The pellet is resuspended in buffer A and the centrifugation repeated. The pellet is suspended in 50 ml of 50 mM Tris-HCl, pH 7.4 and stored at −20° until further work-up.
After thawing, microsomes are collected by ultracentrifugation as described above and suspended in 50 ml of buffer B (10 mM Tris-HCl, pH 7.0; 1 mM EDTA; 2 mM 2-mercaptoethanol; 1% Triton X-100 v/v; 0.1% aprotinin v/v). After 1 hour on ice with gentle agitation the suspension is centrifuged (100,000 g, 1 hour). […]
Purified human steroid sulfatase also readily cleaves aryl sulfates such as 4-methylumbelliferyl sulfate. […]
Plates are incubated at 37° for 1 hour. […] Fluorescence intensity is measured (Titertek Fluoroskan II) with λex=355 nm and λem=460 nm. […]

As a reminder, the IC50 is the midpoint of a concentration-inhibition curve. The low end stands for inhibition by little substance, the high end for a need for much substance. As to `C[C@]12CC[C@@H]3c4ccc(OS(N)(=O)=O)cc4CC[C@H]3[C@@H]1CCC2=O` [Estrone-3-O-sulfamate], the IC50 on steroid sulfatase [1] was 1 to 5 nM; in data set [2] it was around 0.1 nM; on steroid sulfatase [3], around 60 nM.

The term melting point denotes the temperature of the solid-liquid transition. `CN(C)S(=O)(=O)Oc1ccc2oc(C(C)(C)C)cc(=O)c2c1` [Example 9, N,N-Dimethylsulfamic acid 2-t-butyl-4H-chromen-4-on-6-yl ester]: the melting point was in the range of 83 to 85 °C.

These data come from patent US6346626B1, “Chromanone and thiochromanone compounds” (Novartis AG, priority 1998, dated 2002).
